Measured values as given in US8586307B2, “Methods for diagnosing epigenetic, transgenerational effects of environmental toxicants on mammalian germ-lines and treating associated diseases” (priority 2005, dated 2013).

Assays:
[1] = tested on: vinclozolin generation animals; conditions: rat, in vivo
Description: A number of the genes associated with the methylation changes identified have a relationship with various disease states, Table 3. […] Therefore, alterations in the epigenetic (DNA methylation) and/or expression of these genes is associated with a number of disease states. In addition to these correlations to previous literature, the vinclozolin generation animals develop a variety of disease states. Vinclozolin (F1-F4) generation animals between 6-12 months of age develop a variety of disease states or abnormalities, Table 4 [153]. Therefore, the vinclozolin generational animals used develop a variety of diseases, and have the altered epigenetic programming of the male germ-line. Combined observations indicate that the epigenetic alterations in the germ-line DNA and associated genes identified in this Example, are associated with a number of disease states, Tables 3 and 4.

[2] = tested on: DNA isolated from P6 testis or epididymal sperm; experiment: Methylation sensitive restriction enzyme PCR (MSRE-PCR) DNA methylation analysis; format: in vivo, rat
Procedure: DNA Methylation Assays: The methylation status of DNA, isolated from control and endocrine disruptor treated P6 testis, or epididymal sperm, used a combination of methylation sensitive restriction enzymes, and a PCR approach, previously described. Briefly, isolated genomic DNA was incubated and digested with RsaI, with either methylation sensitive (HpaII), or insensitive (MspI) restriction enzymes, followed by PCR, with 10 primer sets designed to amplify methylation sites. PCR products were electrophoretically separated, and visualized by Sybr green staining (Molecular Probes, Eugene, Oreg.), and effects of endocrine disruptors, were determined by the presence or absence of specific bands. The PCR products of interest were isolated, cloned and sequenced to determine chromosomal location by BLAST Genbank analysis. P6 testis analysis was repeated using 4 animals from different litters.
DNA methylation assay: The methylation state of the DNA isolated from CDF control and vinclozolin generation epididymal sperm was determined using a combination of methylation sensitive restriction enzymes and PCR procedures (MSRE-PCR) described above in Example I. Briefly, genomic DNA was isolated from sperm samples using the DNeasy Tissue Kit (Quiagen, Valencia, Calif.). Two micrograms each of control and vinclozolin generation sperm DNA were separately digested with RsaI and either methylation-sensitive enzyme HpaII or insensitive MspI enzymes, followed by PCR with specific primer sets (Table 1). PCR products were electrophoretically separated on polyacrylamide gels and visualized by ethidium bromide staining. The PCR products (i.e. bands) that were reproducibly absent or present between control and vinclozolin generation sperm DNA were excised from stained gels, re-amplified with the same PCR primer set, and then cloned and sequenced. The DNA sequence and chromosomal location were determined using the NCBI Rat genomic databank BLAST system.
Genomic DNA and Methylation Sensitive Restriction Enzyme PCR: Genomic DNA was isolated from the different control and vinclozolin F1-F3 generation epididymal sperm samples. A total of 1 μg of genomic DNA was digested using methylation-sensitive HpaII or AciI enzymes (37° C., 6-12 hr). The digested DNA was precipitated and dissolved in 30 μl of dH2O. Then, 3 μl aliquots were analyzed by PCR in 30 μl reactions with specific primers (Table 1), subjected to 25 cycles, and the PCR products electrophoretically separated on 1.5% agarose. The differences between the control and vinclozolin F1-F3 generation sperm samples were determined for selected genes found to have high optimal digestion capacity.

pregnant females = experiment: Ovary and pregnancy outcomes in vinclozolin generation females; format: in vivo, rat; conditions: preliminary data
Description: The abnormal phenotype has similarities to pre-eclampsia that include death, severe anemia and blood cell defects, occurring in approximately 15% of all pregnancies in vinclozolin-generation females. Other disease states, as such as prostate abnormalities, tumor development, abnormal immune system activation and premature aging, may be induced by the epigenetic transgenerational actions of the endocrine disruptors.

[3] = General observations (body weight, litter size, serum testosterone, other tissues); format: in vivo, rat
Procedure: In Vivo Procedures: Gestating outbred Sprague-Dawley and inbred Fisher mother rats from timed, pregnant colonies housed at the Washington State University Vivarium, were given intraperitoneal injections of vinclozolin (100 mg/kg/day) and methoxychlor (200 mg/kg/day) from embryonic day 8-15 (E8-E15, sperm positive vaginal smear date=E0) of gestation (F0 generation) as previously described. Gestating mothers administered vehicle, sesame oil or DMSO, served as controls. At least 6 lines (individual F0 injected females) were generated for controls and treated groups for these analyses. Male rats from control and treated groups were collected at P60-P180 for analyses. F1 treated males were bred to F1 treated females to generate the F2 treated generation and F2 treated males were bred to F2 treated females to generate the F3 generation and the F3 were bred in the same manner to generate the F4 generation. Rats for the control groups were bred in the same manner for all the generations. No inbreeding or sibling crosses were generated. The outcross group (VOC) were generated by breeding the F2 treated males with wild-type females (total of 6 litters) and reverse outcross group (RVOC) was generated by breeding F2 treated females with wild-type males (total of 3 litters). Control (n=4) and treated (n=4) male offspring from the F1 generation from Fisher strain rats were collected at P6 for DNA methylation analysis, see below. All procedures have been approved by the Washington State University Animal Care Committee. The number of animals used for replicates in the experiments (i.e. n value) are as follows for vinclozolin treatment: F1 (control 11, treated 12); F2 (control 19, treated 30); F3 (control 19, treated 26); F4 (control 10, treated 17); VOC (18); and RVOC (6). For methoxychlor treatment animal number was for F1 (control 6, treated 9) and F2 (control 16, treated 22).

NCAM1 = experiment: Semi-quantitative PCR of NCAM1 expression in adult brain; format: in vivo, rat; conditions: F3 generation males vs control
Procedure: The expression of one of the known genes nearest an altered methylation site identified candidate #1 (NCAM1), is primarily brain specific. An analysis of gene expression for NCAM in the brain was performed. Brains from adult control and vinclozolin F3 generation males were isolated, and RNA was prepared. Four control and five vinclozolin F3 generation animals were analyzed separately. […] This decreased expression of NCAM1 was quantitated, and over a 10-fold reduction in expression was observed between control and vinclozolin F3 generation males, FIG. 15C. Therefore, the hypermethylation of the candidate #1 site in sperm DNA was associated with a reduction in NCAM1 expression in the adult male brain, in vinclozolin F3 generation animals.

F1 generation testis = conditions: cited from earlier work

SMILES: C=CC1(C)OC(=O)N(c2cc(Cl)cc(Cl)c2)C1=O (stereo not drawn) [vinclozolin]
- Prevalence, Immune Abnormalities [1]: 27%
- Prevalence, Kidney Disease [1]: 40%
- Prevalence, Prostate Disease [1]: 50%
- Prevalence, Testis Defect [1]: 30%
- Prevalence, Tumor Development (e.g. breast) [1]: 17%
- frequency at which generation animals develop disease states [1]: ~85%
- gene specific MSRE-PCR products for candidates #1, #14, #17/18, #27/28 and #33 ([2]; F1, F2 and F3 generation sperm DNA): PCR products were observed in all the vinclozolin generation sperm DNA samples, but not in the controls
- individual candidate DNA sequences with potential altered methylation sites ([2]; F3 generation sperm DNA): 25
- candidates with potential altered DNA methylation between control and vinclozolin sperm samples ([2]; F3 generation sperm, Fisher rats): 34
- different PCR products with apparent altered DNA methylation patterns ([2]; P6 testis, F1 males, Fisher rats, n=4): Approximately 25
- animals with altered clone 17 (cytokine-inducible SH2 STAT-like protein gene) methylation in epididymal sperm ([2]; out of 5 F3 animals): 2 animals
- animals with altered clone 17 (cytokine-inducible SH2 STAT-like protein gene) methylation in epididymal sperm ([2]; out of 8 F2 animals): 4 animals
- pregnancies with abnormal phenotype similar to pre-eclampsia (death, severe anemia, blood cell defects) (pregnant females; F1, F2 and F3 generation pregnant females): approximately 15%
- effect on the female ovary (pregnant females): no major effect
- serum testosterone levels ([3]; all the animals): normal
- effect on total body weight ([3]; rat, in vivo): no effect
- gross abnormality in any other tissues examined ([3]; rat, in vivo): No gross abnormality
- litter size, newborn pup weights or testis weight per body weight ([3]; rat, in vivo): no change
- reduction in NCAM1 expression (NCAM1): > 10 fold
- adult F1 generation testis phenotype (F1 generation testis; gestating mother exposed E8-E15, 100 or 200 mg/kg i.p. daily): reduced spermatogenic capacity, increased spermatogenic cell apoptosis and decreased sperm number and motility
- effect on the F1 generation testis (F1 generation testis; rat, in vivo): no effect
